Laboratory results reported in paper PMC3886529, “Structural Features of the Peptide Homologous to 6-25 Fragment of Influenza A PB1 Protein” (International Journal of Peptides, 2013).
Ends that are not written are not given here.

Key:
[1] = molecular target: T1, PB1 (6-25) (Influenza A virus, UniProt O89749); format: physicochemical; settings: pH 7.4
[2] = molecular target: T1, PB1 (6-25); format: physicochemical
[3] = molecular target: T1, PB1 (6-25); format: physicochemical; remark: listed apart in the source
[4] = format: physicochemical; settings: diluted to 0.2 mM, negative staining (phosphotungstic acid, pH 7.4), 80 kV
[5] = molecular target: T1, PB1 (6-25); format: binding
[6] = molecular target: T1, PB1 (6-25); assay: biochemical; format: binding
[7] = Circular dichroism, secondary structure of PB1 (6-25) in solution; format: physicochemical; settings: CD 194–320 nm, 1 mg/mL solution
Protocol: Circular dichroism (194–320 nm) was measured on PB1 (6-25) 1 mg/mL solution. Spectra were analyzed with CDNN software.

## TLLFLKVP-OH [PB1 (6-13), TLLFLKVP]
[1]
  characteristic linear size of structured aggregates: about 500 nm
[2]
  diameter of aggregates: 500–1000 nm
[3]
  reversibility of insoluble aggregates: could not reverse into soluble forms after dilution or heating
[4]
  formation of structured aggregates, single peptide alone: not in the samples containing either one of the peptides
[5]
  effect on antiparallel beta-sheets of PB1 (6-25): contributed to increase antiparallel beta-sheets
[6]
  Kd: 200 to 1000 µM

## TLLFLKVPAQNAISTTFPYT [PB1 (6-25), peptide comprised of amino acid residues 6-25 of influenza virus PB1]
[7]; CDNN software
  alpha-helix content: 8%
  antiparallel beta-sheet content: 30%
  beta-turns content: 25%
  random coil structure content: 37%
[7]; compared with the molecular dynamics model
  secondary structure in solution: structure similar to the described model of beta-hairpin
[4]
  formation of structured aggregates, single peptide alone: not in the samples containing either one of the peptides
